From patent publication US20030166005A1, “Test system for determining the activity of cyclo-nucleotide-dependent protein kinases and vasp phosphatases” (priority 2000, published 2003)

Tests used:
cGK [1] = molecular target: T1, cGK (Homo sapiens, UniProt Q13976); experiment: Influence of DMSO on the enzyme activity in the test system; format: biochemical; conditions: for Enzyme activity in cps/min: incubation period 10 min
T1 sequence (Q13976 1-671): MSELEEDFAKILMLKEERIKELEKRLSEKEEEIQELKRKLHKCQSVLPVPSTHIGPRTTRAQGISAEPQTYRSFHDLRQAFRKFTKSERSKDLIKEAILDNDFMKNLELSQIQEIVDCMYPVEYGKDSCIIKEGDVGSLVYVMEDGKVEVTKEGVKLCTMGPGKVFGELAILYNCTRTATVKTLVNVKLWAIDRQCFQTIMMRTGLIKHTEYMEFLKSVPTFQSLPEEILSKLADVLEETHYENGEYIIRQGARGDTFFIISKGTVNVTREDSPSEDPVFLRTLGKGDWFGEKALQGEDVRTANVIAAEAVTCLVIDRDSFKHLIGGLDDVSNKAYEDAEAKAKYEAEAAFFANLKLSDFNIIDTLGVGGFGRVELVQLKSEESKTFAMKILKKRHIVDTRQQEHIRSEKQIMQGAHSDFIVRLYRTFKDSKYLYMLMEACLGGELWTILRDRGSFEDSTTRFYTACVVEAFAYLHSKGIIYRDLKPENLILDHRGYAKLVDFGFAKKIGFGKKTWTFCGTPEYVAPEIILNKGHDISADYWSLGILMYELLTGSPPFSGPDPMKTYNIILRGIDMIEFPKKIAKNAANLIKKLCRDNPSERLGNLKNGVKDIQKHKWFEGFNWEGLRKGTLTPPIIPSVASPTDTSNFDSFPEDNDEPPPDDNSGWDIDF
Protocol: Most substances which are tested in an HTS are preferably dissolved in DMSO. However, many enzymes or test systems are very sensitive to DMSO. In order to determine the influence of DMSO on the test system according to the invention, phosphorylation kinetics, as described in Example 2 (cf. FIG. 2), were carried out in the presence of 0, 5, 10, 15 and 20% DMSO.

cGK [2] = molecular target: T1, cGK; experiment: biochemical
Protocol: Instead of carrying out a kinase reaction for the purpose of establishing and optimizing the detection system, a synthetic phosphopeptide (phosphorylated version of the VASP substrate peptide) was used as the “reaction product” and was quantified using a detection mix. In order to ascertain the linear measurement range, different mixtures of unphosphorylated peptide and phosphopeptide were prepared. When so doing, the total concentration of peptide was kept constant at 500 nmol/l. 50 μl of these mixtures were added to the wells of a 96-well microtest plate and in each case treated with 200 μl of a detection mix which contained the following reagents diluted in PBS:
The time-resolved FRET signal, when exciting the europium fluorescence at 340 nm and measuring the emission of the APC fluorescence at 660 nm, was measured, after incubating at 20° C. for 1 hour, using a PerkinElmer Wallac fluorescence-measuring instrument (Victor^2).
After the tubes had been preincubated at 30° C. for 5 minutes, the kinase reaction was started with 50 μmol of ATP/l, with subsequent incubation being at 30° C. All the above-mentioned concentrations are to be understood as meaning final concentrations in a volume of 500 μl. […] The phosphorylated substrate peptide was detected, as described in Example 1, in the wells of a 384-well microtest plate. […]

Enzyme activity in cps/min (cGK [1]; 5 percent by volume of DMSO) [cps/min]	Enzyme activity in cps/min (cGK [1]; 10 percent by volume of DMSO) [cps/min]	Enzyme activity in cps/min (cGK [1]; 15 percent by volume of DMSO) [cps/min]	Enzyme activity in cps/min (cGK [1]; 20 percent by volume of DMSO) [cps/min]	influence on the reaction (cGK [1]; up to 20 percent by volume of DMSO)	EC50 (cGK [2]) [nM]	SMILES
2282	2253	2218	1988	no significant influence		C[S+](C)[O-] [DMSO, dimethyl sulfoxide]
					100	Nc1nc(=O)c2nc(Sc3ccc(Cl)cc3)n([C@@H]3O[C@@H]4COP(=O)(O)O[C@H]4[C@H]3O)c2[nH]1 [8-pCPT-cGMP]
